Measurements taken from patent publication US20240208901A1, “Deuterated 3,3'-Diselenodipropionic Acid (DSePA) and Its Use as an Anticancer or Radioprotective Agent” (Secretary, Department of Atomic Energy, priority 2022, published 2024).

How the values were obtained:
A549 cells = assay: MTT assay, anti-proliferative effect in A549 cells; assay type: cell-based, human; conditions: Homo sapiens, 48 h treatment, read-out: IC50 to inhibit cell proliferation
Protocol: (§1) Therefore, D-DSePA was compared with un-deuterated DSePA for its anticancer activity in A549, H1975 and H3122 cell lines which are representative of NSCLC. For this, above cells were treated with the varying concentrations (0.1-100 μM) of DSePA/D-DSePA for 48 h and the cell viability was determined by MTT assay (FIG. 9A-C). The plot of percent (%) cytotoxicity (100-% viability) versus the concentration of DSePA/D-DSePA was used to estimate the half maximum concentration (IC50) of above compounds to inhibit the proliferation of cells. […] Employing these values, the therapeutic index (IC50 in normal lung cell/IC50 in lung cancer cell) of DSePA and D-DSePA in different pairs of normal versus cancerous cells (viz., A549/WI-38, A549/WI-26 VA4, H1975/WI-38, H1975/WI-26 VA4, H3122/WI-38 and H3122/WI-26 VA4) was calculated (Table-3). […]
(§2) MTT Assay—To evaluate the anti-proliferative effect of D-DScPA and DScPA, Cells (˜5×10^3) suspended in 100 μl of complete culture medium were seeded in each well of 96 well plates. […] The percentage (%) cytotoxicity was calculated from the decrease in absorbance at 570 nm of treated groups as compared to that of control group. […] The therapeutic index was calculated by normalizing the IC50 concentration of D-DSePA/DSePA in non-cancerous cells to that in cancerous cells.

WI-38 cells = assay: MTT assay, toxicity in non-cancerous lung fibroblast WI-38 cells; assay type: cell-based, human; conditions: Homo sapiens, WI-38, WI38 cells, 48 h post treatment, read-out: IC50 for inhibiting the cell proliferation
From the text: as §1, with “For this, above cells were treated with the varying concentrations (0.1-100 μM) of DSePA/D-DSePA for 48 h and the cell viability was determined by MTT assay (FIG. 9A-C).” left out, “cells. […] Similarly, the toxicity of DSePA/D-DSePA was studied in non-cancerous lung fibroblast cells, WI-38 and WI-26 VA4 in the concentration range of 0.1 to 1000 μM at 48 h post treatment by MTT assay (FIG. 9D and 9E).” for “cells.”
as §2

With O=C(O)CC[Se][Se]CCC(=O)O [DSePA, 3,3′-diselenodipropionic acid] as the compound, how does the IC50 (A549 cells) read?
Its IC50 is 15.2 ± 1 µM.

What about the IC50 (WI-38 cells) of the same compound?
The IC50 was 171 ± 2.2 µM.
